A word on the MIC: it is the smallest concentration in the dilution series that meets the test's criterion for growth inhibition.

Experimental findings from DBAASP are described below.

Converted amounts (≈) assume the structure as drawn. “And” between values parts separate entries of the source, which are not always exact repeats. Equal values may be shown once. Where only a bound is given, the exact number is not on record here.

Among the test systems are Aureobasidium pullulans; Bacillus megaterium; Micrococcus luteus; Escherichia coli ML-35p; Saccharomyces cerevisiae; Salmonella typhimurium; Escherichia coli SBS 363; Escherichia coli DC2; Escherichia coli K-12; Staphylococcus aureus.
Common to all, as to experiment: ≥ marks a high value that may be exact or a test limit, other limits are often not marked, values filed in µg/mL are converted to µM
The test system of test [1] is Escherichia coli O157:H7 ATCC 43895.
Test [2] concerns Bacillus subtilis ATCC 23857.
The test system of test [3] is Candida albicans ATCC 10231.
Test [4] relates to Corynebacterium glutamicum ATCC 13032.
Test [5] has as its system Escherichia coli ATCC 25922.
Test [6] concerns Pseudomonas aeruginosa ATCC 27853.
The test system of test [7] is Staphylococcus aureus ATCC 9144.
For test [8], the system named is Acinetobacter baumannii ATCC 19606.
The subject of test [9] is Candida parapsilosis ATCC 22019.
Test [10] concerns Enterococcus faecalis ATCC 29212.
The test system of test [11] is Klebsiella pneumoniae ATCC 13883.
Test [12] relates to Staphylococcus aureus ATCC 25923.
Test [13] has as its system Staphylococcus aureus ATCC 43300.
The test system of test [14] is Staphylococcus aureus ATCC BAA-44.
The subject of test [15] is Staphylococcus aureus ST1065.
In test [16] the test system is Streptococcus pyogenes ATCC 19615.
Test [17] deals with Aeromonas salmonicida NCIMB 1102.
Test [18] has as its system Bacillus subtilis IAM 1026.
In test [19] the test system is Escherichia coli JCM 1649.
In test [20] the test system is Photobacterium damselae subsp. piscicida Sp 9587.
For test [21], the system named is Shewanella putrefaciens IAM 1509.
The subject of test [22] is Staphylococcus aureus IAM 1011.
Test [23] relates to Vibrio anguillarum NCIMB 829.
The test system of test [24] is Vibrio parahaemolyticus Vp+1.
Test [25] relates to Staphylococcus aureus ATCC 29213.
For test [26], the system named is Staphylococcus aureus UAMS-1.

`CC(C)C[C@H](NC(=O)[C@H](C)N)C(=O)N[C@@H](Cc1c[nH]c2ccccc12)C(=O)N[C@@H](CCCCN)C(=O)N[C@H](C(=O)N[C@@H](CC(C)C)C(=O)N[C@@H](CC(C)C)C(=O)N[C@@H](CCCCN)C(=O)N[C@@H](CCCCN)C(=O)N[C@H](C(=O)N[C@@H](CC(C)C)C(=O)N[C@@H](CCCCN)C(=O)N[C@@H](C)C(=O)N[C@@H](C)C(=O)N[C@@H](C)C(=O)N[C@@H](CCCCN)C(=O)N[C@@H](C)C(=O)N[C@@H](C)C(=O)N[C@@H](CC(C)C)C(=O)N[C@@H](CCCCN)C(=O)N[C@@H](C)C(=O)N[C@H](C(=O)N[C@@H](CC(C)C)C(=O)N[C@H](C(=O)NCC(=O)N[C@@H](C)C(=O)N[C@@H](CC(N)=O)C(=O)N[C@@H](C)C(N)=O)C(C)C)C(C)C)C(C)C)[C@@H](C)O` [ALWKTLLKKVLKAAAKAALKAVLVGANA] showed a minimum inhibitory concentration (MIC) in [1] of 8 µM (≈ 22.9 µg/mL).
With `C[C@H](NC(=O)[C@H](CCCCN)NC(=O)[C@H](Cc1c[nH]c2ccccc12)NC(=O)CNC(=O)CNC(=O)[C@@H]1CCCN1C(=O)[C@H](CCCCN)NC(=O)[C@H](CCCCN)NC(=O)CN)C(=O)N[C@@H](CCCCN)C(N)=O` [GKKPGGWKAK], the MIC in the test with Aureobasidium pullulans was no less than 237 µM; in the test with Bacillus megaterium, no less than 237 µM; in [2], no less than 237 µM; in test [3], greater than 237 µM; in test [4] it was no less than 237 µM; in test [5], greater than 237 µM. In addition, the minimal inhibitory concentration (MIC) was no less than 237 µM in the test with Micrococcus luteus, greater than 237 µM in [6] and no less than 237 µM in test [7].
For the compound `CC[C@H](C)[C@H](NC(=O)[C@H](C)NC(=O)[C@H](CC(C)C)NC(=O)[C@H](CO)NC(=O)[C@H](C)NC(=O)[C@@H](NC(=O)CNC(=O)[C@H](CO)NC(=O)[C@@H](NC(=O)[C@@H](NC(=O)[C@H](Cc1cnc[nH]1)NC(=O)[C@@H]1CCCN1C(=O)[C@@H](NC(=O)[C@H](CC(C)C)NC(=O)[C@H](CO)NC(=O)[C@H](CC(C)C)NC(=O)[C@@H](N)Cc1ccccc1)[C@@H](C)CC)[C@@H](C)CC)C(C)C)C(C)C)C(=O)N[C@@H](Cc1cnc[nH]1)C(=O)N[C@@H](Cc1ccccc1)C(N)=O` [FLSLIPHIVSGVASLAIHF], the MIC in test [8] was greater than 200 µM; in test [9], no less than 200 µM; in [10] it was greater than 200 µM; in test [5], greater than 200 µM; against Escherichia coli ML-35p it was no less than 200 µM; in test [11], no less than 200 µM. Also, the MIC was greater than 200 µM in test [6]; no less than 200 µM with Saccharomyces cerevisiae; greater than 200 µM in test [12]; greater than 200 µM in test [13]; no less than 200 µM in test [14]; no less than 200 µM in test [15]. For the same compound, the minimum inhibitory concentration (MIC) in [16] amounted to 12.5 µM (≈ 25.3 µg/mL).
On to `CC(C)C[C@H](NC(=O)[C@H](Cc1cnc[nH]1)NC(=O)CNC(=O)[C@H](C)NC(=O)[C@H](C)NC(=O)[C@@H](NC(=O)[C@H](Cc1ccccc1)NC(=O)[C@H](C)NC(=O)[C@H](CC(C)C)NC(=O)[C@H](CCCCN)NC(=O)[C@H](CCCCN)NC(=O)[C@H](CC(C)C)NC(=O)[C@H](CC(C)C)NC(=O)[C@H](CCC(=O)O)NC(=O)[C@H](CCCN=C(N)N)NC(=O)[C@H](Cc1c[nH]c2ccccc12)NC(=O)[C@@H](N)Cc1c[nH]c2ccccc12)[C@@H](C)O)C(=O)NCC(=O)N[C@@H](CO)C(=O)N[C@H](C(=O)N[C@@H](CC(C)C)C(=O)N[C@@H](C)C(=O)N[C@@H](C)C(=O)N[C@@H](CCCCN)C(=O)N[C@@H](CCC(N)=O)C(=O)N[C@@H](CO)C(=O)NCC(=O)N[C@@H](Cc1c[nH]c2ccccc12)C(=O)O)C(C)C` [WWRELLKKLAFTAAGHLGSVLAAKQSGW], for which the MIC was 8 µM (≈ 25 µg/mL) in test [17]; 8 µM (≈ 25 µg/mL) in [18]; 16 µM (≈ 50 µg/mL) in [19]; 8 µM (≈ 25 µg/mL) in [20]; 16 µM (≈ 50 µg/mL) against Salmonella typhimurium; 2 µM (≈ 6.25 µg/mL) in test [21]. In addition, the results for the MIC in [22], in [23] and in test [24] were 4 µM (≈ 12.5 µg/mL), 16 µM (≈ 50 µg/mL) and 16 µM (≈ 50 µg/mL), respectively.
As to `CC[C@H](C)[C@H](NC(=O)[C@H](CCC(N)=O)NC(=O)CNC(=O)[C@H](CC(C)C)NC(=O)[C@@H](NC(=O)[C@H](CCCCN)NC(=O)[C@H](CCCN=C(N)N)NC(=O)[C@H](Cc1c[nH]c2ccccc12)NC(=O)[C@@H](N)CC(N)=O)[C@@H](C)CC)C(=O)N[C@@H](C)C(=O)N[C@@H](CO)C(=O)N[C@H](C(=O)NCC(=O)N[C@@H](C)C(=O)NCC(=O)N[C@@H](CC(C)C)C(=O)N[C@@H](CC(C)C)C(=O)NCC(=O)N[C@@H](CO)C(=O)N[C@@H](CC(C)C)C(=O)N[C@@H](CC(C)C)C(=O)N[C@@H](C)C(=O)NCC(=O)N[C@@H](Cc1ccc(O)cc1)C(=O)N[C@@H](CCC(=O)O)C(=O)O)C(C)C` [NWRKILGQIASVGAGLLGSLLAGYE], the MIC in [17] is 19.3 µM (≈ 50 µg/mL); in test [18] it was 19.3 µM (≈ 50 µg/mL); in test [19] it was 19.3 µM (≈ 50 µg/mL); in test [20], 9.66 µM (≈ 25 µg/mL); with Salmonella typhimurium, 19.3 µM (≈ 50 µg/mL); in [21] it was 4.83 µM (≈ 12.5 µg/mL). For the same compound, the MIC in [22], in test [23] and in test [24] was 19.3 µM (≈ 50 µg/mL) throughout.
Turning to `CC(C)C[C@H](NC(=O)CN)C(=O)N[C@@H](Cc1ccccc1)C(=O)N[C@@H](CCCCN)C(=O)NCC(=O)N[C@@H](CCCCN)C(=O)N[C@@H](CCCCN)C(=O)N[C@@H](CCCCN)C(=O)N[C@@H](CC(N)=O)C(=O)N[C@@H](CCCCN)C(=O)N[C@@H](CCCCN)C(=O)N[C@H](C(=O)N[C@@H](CCCCN)C(N)=O)[C@@H](C)O` [GLFKGKKKNKKTK], the results for the MIC (in [5]; in the test on Escherichia coli SBS 363; in [25]) were greater than 250 µM, no less than 250 µM and greater than 250 µM, respectively.
For the compound `CC[C@H](C)[C@H](NC(=O)[C@H](CCCCN)NC(=O)[C@H](CCC(=O)O)NC(=O)[C@H](CCCCN)NC(=O)[C@@H](NC(=O)[C@H](CCCCN)NC(=O)[C@H](CCCN=C(N)N)NC(=O)[C@H](Cc1ccccc1)NC(=O)[C@H](Cc1ccccc1)NC(=O)[C@H](CC(=O)O)NC(=O)CNC(=O)[C@H](CC(C)C)NC(=O)[C@@H](N)CC(C)C)C(C)C)C(=O)NCC(=O)N[C@@H](CCCCN)C(=O)N[C@@H](CCC(=O)O)C(=O)N[C@@H](Cc1ccccc1)C(=O)N[C@@H](CCCCN)C(=O)N[C@@H](CCCN=C(N)N)C(=O)N[C@H](C(=O)N[C@H](C(=O)N[C@@H](CCC(N)=O)C(=O)N[C@@H](CCCN=C(N)N)C(=O)O)C(C)C)[C@@H](C)CC` [LLGDFFRKVKEKIGKEFKRIVQR], the MIC against Escherichia coli DC2 is 2 µM (≈ 5.67 µg/mL); in the test on Escherichia coli K-12 it was no less than 40 µM; in [26], no less than 160 µM; in the test with Staphylococcus aureus, > 24 µM and 12 µM.
